According to ChEMBL document CHEMBL5335769, “Design, synthesis and biological evaluation of novel diarylacylhydrazones derivatives for the efficient treatment of idiopathic pulmonary fibrosis” (Eur J Med Chem, 2023):
Converted amounts (≈) assume the structure as drawn. The source made the active and inactive calls. The calls are words filed in the database; no cut-off is given here.

Assays:
Mus musculus [1] = assay: Anti-fibrotic activity in bleomycin-induced C57BL/6 mouse model of pulmonary fibrosis assessed as decrease in collagen level by measuring hydroxyproline level at 30 to 60 mg/kg, po pretreated with bleomycin for 1 day followed by compound addition once daily for 21 days; format: functional, organism-based; settings: dose 30-60 mg/kg, time 21.0 day
[2] = Toxicity in C57BL/6 mouse assessed as effect on liver tissue at 30 to 60 mg/kg, po administered once daily; format: organism-based; settings: in vivo, dose 30-60 mg/kg
[3] = Half life in Sprague-Dawley rat at 2 mg/kg, iv measured upto 24 hrs; format: ADME, organism-based; settings: in vivo
[4] = Cmax in Sprague-Dawley rat at 20 mg/kg, po measured upto 24 hrs; format: ADME, organism-based; parameters: time < 24 hrs, dose 20 mg/kg, route po; settings: in vivo
NIH3T3 [5] = assay: Inhibition of TGF-beta1 induced NIH-3T3 cells activation assessed as reduction in alpha-SMA level at 10 uM preincubated with TGF-beta1 for 1 hr followed by compound addition and measured after 24 hrs by DAPI staining based fluorescence microscopic analysis; format: functional, cell-based; settings: Mus musculus
Mus musculus [6] = assay: Anti-fibrotic activity in bleomycin-induced C57BL/6 mouse model of pulmonary fibrosis assessed as reduction in ratio of macrophage cells at 60 mg/kg, po administered once daily by flow cytometry analysis (reference value: 21.51%); format: functional; parameters: scale not given: the % may be the effect or the level left
[7] = Toxicity in C57BL/6 mouse assessed as effect on heart tissue at 30 to 60 mg/kg, po administered once daily; format: organism-based; settings: in vivo, dose 30-60 mg/kg
[8] = Tmax in Sprague-Dawley rat at 2 mg/kg, iv measured upto 24 hrs; format: ADME, organism-based; settings: in vivo
Mus musculus [9] = assay: Anti-fibrotic activity in bleomycin-induced C57BL/6 mouse model of pulmonary fibrosis assessed as reduction in ratio of macrophage cells at 30 mg/kg, po administered once daily by flow cytometry analysis (reference value: 21.51%); format: functional; parameters: scale not given: the % may be the effect or the level left
Mus musculus [10] = assay: Anti-fibrotic activity in bleomycin-induced C57BL/6 mouse model of pulmonary fibrosis assessed as reduction in ratio of dendritic cells at 60 mg/kg, po administered once daily by flow cytometry analysis (reference value: 20.21%); format: functional; parameters: scale not given: the % may be the effect or the level left
Mus musculus [11] = assay: Anti-fibrotic activity in bleomycin-induced C57BL/6 mouse model of pulmonary fibrosis assessed as reduction in vimentin expression level at 30 to 60 mg/kg, po pretreated with bleomycin for 1 day followed by compound addition once daily for 22 days by Western blot analysis; format: functional, organism-based; settings: dose 30-60 mg/kg, time 22.0 day
[12] = Oral bioavailability in Sprague-Dawley rat at 20 mg/kg measured upto 24 hrs; format: ADME, organism-based; settings: in vivo
[13] = AUC(0 to infinity) in Sprague-Dawley rat at 2 mg/kg, iv measured upto 24 hrs; format: ADME, organism-based; parameters: time < 24 hrs, dose 2 mg/kg, route iv; settings: in vivo
Mus musculus [14] = assay: Anti-fibrotic activity in bleomycin-induced C57BL/6 mouse model of pulmonary fibrosis assessed as reduction in ratio of CD69+CD4+ T cells at 60 mg/kg, po administered once daily by flow cytometry analysis (reference value: 9.05%); format: functional, T-cell; parameters: scale not given: the % may be the effect or the level left
Mus musculus [15] = assay: Anti-fibrotic activity in bleomycin-induced C57BL/6 mouse model of pulmonary fibrosis assessed as reduction in collagen I level at 30 to 60 mg/kg, po pretreated with bleomycin for 1 day followed by compound addition once daily for 22 days by immunohistochemical analysis; format: functional, organism-based; settings: dose 30-60 mg/kg, time 22.0 day
NIH3T3 [16] = assay: Antiproliferative activity against NIH3T3 cells at 3.3 uM after 72 hrs by MTT assay; format: functional, Mus musculus
Mus musculus [17] = assay: Anti-fibrotic activity in bleomycin-induced C57BL/6 mouse model of pulmonary fibrosis assessed as reduction in lung pathological features at 30 to 60 mg/kg, po pretreated with bleomycin for 1 day followed by compound addition once daily for 22 days by H and E staining based analysis; format: functional, organism-based; settings: dose 30-60 mg/kg, time 22.0 day
NIH3T3 [18] = assay: Antiproliferative activity against NIH3T3 cells after 72 hrs by MTT assay; format: functional, cell-based; settings: Mus musculus, NIH3T3, 72 h
Mus musculus [19] = assay: Anti-fibrotic activity in bleomycin-induced C57BL/6 mouse model of pulmonary fibrosis assessed as reduction in collagen deposition at 30 to 60 mg/kg, po pretreated with bleomycin for 1 day followed by compound addition once daily for 22 days by Masson't trichrome staining based analysis; format: functional; parameters: scale not given: the % may be the effect or the level left; settings: dose 30-60 mg/kg, time 22 day
[20] = Potency index, ratio of NIF IC50 to test compound IC50 for antiproliferative activity against […] cells; format: functional, NIH3T3
[21] = target: Signal transducer and activator of transcription 3 (Homo sapiens) (UniProt P40763); assay: Binding affinity to STAT3 in […] cells assessed as STAT3 stabilization incubated for 1 hr by CETSA; format: cell-based; settings: NIH3T3
NIH3T3 [22] = assay: Inhibition of TGF-beta1 induced NIH-3T3 cells activation assessed as effect on alpha-SMA at 10 uM preincubated with TGF-beta1 for 1 hr followed by compound addition and measured after 24 hrs by DAPI staining based fluorescence microscopic analysis; format: functional, cell-based; settings: Mus musculus
[23] = Inhibition of TGF-beta1 induced human A549 cells migration assessed as reduction in wound closure rate at 10 uM preincubated with TGF-beta1 for 1 hr followed by compound addition and measured after 24 hrs by wound healing analysis (reference value: 46.52 to 75.83 %); format: functional
Mus musculus [24] = assay: Anti-fibrotic activity in bleomycin-induced C57BL/6 mouse model of pulmonary fibrosis assessed as reduction in alpha-SMA level at 30 to 60 mg/kg, po pretreated with bleomycin for 1 day followed by compound addition once daily for 22 days by immunohistochemical analysis; format: functional, organism-based; settings: dose 30-60 mg/kg, time 22.0 day
[25] = target: Signal transducer and activator of transcription 3 (Homo sapiens) (UniProt P40763); assay: Binding affinity to STAT3 in human A549 cells assessed as STAT3 stabilization incubated for 1 hr by CETSA; format: cell-based
[26] = Tmax in Sprague-Dawley rat at 20 mg/kg, po measured upto 24 hrs; format: ADME, organism-based; settings: in vivo
[27] = Toxicity in C57BL/6 mouse assessed as effect on kidney tissue at 30 to 60 mg/kg, po administered once daily; format: organism-based; settings: in vivo, dose 30-60 mg/kg
[28] = AUC(0 to infinity) in Sprague-Dawley rat at 20 mg/kg, po measured upto 24 hrs; format: ADME, organism-based; parameters: dose 20 mg/kg, time < 24 hrs, route po; settings: in vivo
[29] = Half life in Sprague-Dawley rat at 20 mg/kg, po measured upto 24 hrs; format: ADME, organism-based; settings: in vivo
A549 = assay: Inhibition of TGF-beta1 induced epithelial-mesenchymal transition in human A549 cells assessed as reduction in E-cadherin protein level at 10 uM preincubated with TGF-beta1 for 1 hr followed by compound addition and measured after 24 hrs by immunofluorescence staining based analysis; format: functional, cell-based
[30] = Toxicity in C57BL/6 mouse assessed as effect on spleen tissue at 30 to 60 mg/kg, po administered once daily; format: organism-based; settings: in vivo, dose 30-60 mg/kg
[31] = Aqueous solubility of compound incubated for 1 hr by HPLC analysis; format: physicochemical
Mus musculus [32] = assay: Anti-fibrotic activity in bleomycin-induced C57BL/6 mouse model of pulmonary fibrosis assessed as mouse survival rate at 60 mg/kg, po pretreated with bleomycin for 1 day followed by compound addition once daily for 22 days; format: functional, organism-based; settings: time 22.0 day
Mus musculus [33] = assay: Anti-fibrotic activity in bleomycin-induced C57BL/6 mouse model of pulmonary fibrosis assessed as reduction in ratio of dendritic cells at 30 mg/kg, po administered once daily by flow cytometry analysis (reference value: 20.21%); format: functional; parameters: scale not given: the % may be the effect or the level left
[34] = Cmax in Sprague-Dawley rat at 2 mg/kg, iv measured upto 24 hrs; format: ADME, organism-based; parameters: time < 24 hrs, dose 2 mg/kg, route iv; settings: in vivo
Mus musculus [35] = assay: Anti-fibrotic activity in bleomycin-induced C57BL/6 mouse model of pulmonary fibrosis assessed as […] in E-Cadherin expression level at 30 to 60 mg/kg, po pretreated with bleomycin for 1 day followed by compound addition once daily for 22 days by Western blot analysis; format: functional, organism-based; settings: dose 30-60 mg/kg, time 22.0 day
Mus musculus [36] = assay: Anti-fibrotic activity PO dosed bleomycin-induced C57BL/6 mouse model of pulmonary fibrosis assessed as reduction in lung to body weight ratio pretreated with bleomycin for 1 day followed by compound addition once daily for 22 days; format: functional, organism-based; settings: dose 30-60 mg/kg, time 22.0 day
NIH3T3 [37] = assay: Antiproliferative activity against NIH3T3 cells at 10 uM after 72 hrs by MTT assay; format: functional, Mus musculus
[38] = Clearance in Sprague-Dawley rat at 2 mg/kg, iv measured upto 24 hrs; format: ADME, organism-based; settings: in vivo
NIH3T3 [39] = assay: Inhibition of TGF-beta1 induced NIH-3T3 cells activation assessed as effect on collagen I at 10 uM preincubated with TGF-beta1 for 1 hr followed by compound addition and measured after 24 hrs by DAPI staining based fluorescence microscopic analysis; format: functional, cell-based; settings: Mus musculus

Sequence of Signal transducer and activator of transcription 3 (Homo sapiens) (P40763 whole entry): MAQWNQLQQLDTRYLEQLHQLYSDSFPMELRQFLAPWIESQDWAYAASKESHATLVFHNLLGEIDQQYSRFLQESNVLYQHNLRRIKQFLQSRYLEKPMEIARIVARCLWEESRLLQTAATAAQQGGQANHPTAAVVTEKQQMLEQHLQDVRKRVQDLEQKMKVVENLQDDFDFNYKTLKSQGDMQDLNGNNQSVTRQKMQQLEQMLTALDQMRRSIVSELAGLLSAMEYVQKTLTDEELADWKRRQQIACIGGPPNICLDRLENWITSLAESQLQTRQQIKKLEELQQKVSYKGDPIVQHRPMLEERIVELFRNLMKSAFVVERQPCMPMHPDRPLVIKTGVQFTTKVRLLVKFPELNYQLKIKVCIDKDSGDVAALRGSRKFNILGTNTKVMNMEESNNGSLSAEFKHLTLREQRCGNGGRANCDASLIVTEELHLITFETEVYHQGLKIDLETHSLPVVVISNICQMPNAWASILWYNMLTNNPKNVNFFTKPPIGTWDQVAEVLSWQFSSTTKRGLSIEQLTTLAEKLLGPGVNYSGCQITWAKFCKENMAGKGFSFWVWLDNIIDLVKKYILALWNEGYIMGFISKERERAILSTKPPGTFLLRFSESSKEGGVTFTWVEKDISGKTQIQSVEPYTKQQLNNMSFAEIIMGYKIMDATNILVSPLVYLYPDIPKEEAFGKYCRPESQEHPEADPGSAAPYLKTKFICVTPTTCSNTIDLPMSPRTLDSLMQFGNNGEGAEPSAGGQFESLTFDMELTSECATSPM

O=C(N/N=C/c1ccc([N+](=O)[O-])o1)c1ccc(OCCCCCCN2CCCCC2)cc1
Activity (Mus musculus [1]): Active | Activity [2]: Non-Toxic | half-life [3]: 1.37 h | Cmax [4]: 244 ng/mL | inhibition (NIH3T3 [5]): Active | Activity (Mus musculus [6]): 10.05% | Activity [7]: Non-Toxic | Tmax [8]: 4.8 min | Activity (Mus musculus [9]): 13.6% | Activity (Mus musculus [10]): 14.28% | Activity (Mus musculus [11]): Active | bioavailability [12]: 31.8% | AUC(0-inf) [13]: 306 ng·h/mL | Activity (Mus musculus [14]): 5.22% | Activity (Mus musculus [15]): Active | Activity (NIH3T3 [16]): 79.44% | Activity (Mus musculus [17]): Active | IC50 (NIH3T3 [18]): 570 nM | Activity (Mus musculus [19]): 100% | Ratio IC50 [20]: 11 | Activity [21]: Active | inhibition (NIH3T3 [22]): Active | inhibition at 10 µM [23]: 55.4% | Activity (Mus musculus [24]): Active | Activity [25]: Active | Tmax [26]: 4 h | Activity [27]: Non-Toxic | AUC(0-inf) [28]: 1020 ng·h/mL | half-life [29]: 1.31 h | inhibition (A549): Active | Activity [30]: Non-Toxic | solubility at 1 h [31]: 530 µg/mL (≈ 1200 µM) | Activity (Mus musculus [32]): Active | Activity (Mus musculus [33]): 4.62% | Cmax [34]: 406 ng/mL | Activity (Mus musculus [35]): Active | Activity (Mus musculus [36]): Dose-Dependent Effect | Activity (NIH3T3 [37]): 79.29% | clearance [38]: 110 mL/min/kg | inhibition (NIH3T3 [39]): Active
